In PubChem BioAssay (NCI):
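Grown in 96-well plates, cells were treated for 48 hours with each compound at five concentrations. Insufficient inhibition: endpoint recorded as highest concentration tested. GI50 = concentration required for 50% inhibition of growth. The concentration for full growth arrest is given as TGI.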

Legend:
Experiment in all cases: NCI-60 cell line screen, 48 h
NCI-H226 lung = system: NCI-H226 lung
OVCAR-4 ovarian = system: OVCAR-4 ovarian
RPMI-8226 leukemia = system: RPMI-8226 leukemia
SK-MEL-5 melanoma = system: SK-MEL-5 melanoma
SK-OV-3 ovarian = system: SK-OV-3 ovarian
UO-31 renal = system: UO-31 renal
COLO 205 colon = system: COLO 205 colon
HL-60(TB) leukemia = system: HL-60(TB) leukemia
MALME-3M melanoma = system: MALME-3M melanoma
A498 renal = system: A498 renal

Structure (SMILES)	TGI (NCI-H226 lung) [µM]	TGI (OVCAR-4 ovarian) [µM]	TGI (RPMI-8226 leukemia) [µM]	TGI (SK-MEL-5 melanoma) [µM]	TGI (SK-OV-3 ovarian) [µM]	TGI (UO-31 renal) [µM]	TGI (COLO 205 colon) [µM]	TGI (HL-60(TB) leukemia) [µM]	TGI (MALME-3M melanoma) [µM]	TGI (A498 renal) [µM]	GI50 (A498 renal) [µM]	GI50 (HL-60(TB) leukemia) [µM]	GI50 (RPMI-8226 leukemia) [µM]	GI50 (SK-MEL-5 melanoma) [µM]	GI50 (UO-31 renal) [µM]
c1ccc(/C(=N/Nc2ccncn2)c2ccccn2)cc1	96.2	> 100	> 100	> 100	75.7	67.3									
COc1ccc(Nc2ccc3ccccc3c2-c2c(O)ccc3ccccc23)cc1	30.5	41.9	27.4	32.6		26.4	47	55.2							
O=C1C=CC(=O)c2c(O)c(NCCOCCO)c(Cl)c(O)c21	32.4	5.91	> 100	4.47	31.1	29.7	4.8	> 100	8.43						
C=CC[n+]1c2ccccc2n2cc([N+](=O)[O-])ccc21	69.3	> 100		42	> 100	> 100	26.2	50.3	30.2	55					
Cc1c(C(=O)OCc2ccccc2)[n+](=O)c2cc(Cl)c(Cl)cc2n1[O-]	20.1	26.9	21.2	28.2	60	32	32.2	27.3		35.6					
Cc1ccc(S(=O)CC(CF)OCn2cc(C)c(=O)[nH]c2=O)cc1 (stereo not drawn)	> 100	> 100	> 100	> 100	> 100	> 100	> 100	> 100	> 100						
CCCCCCCCCCCCCCCCCCNc1nc(=O)n(C2CC(O)C(COP(=O)(O)O)O2)cc1F (stereo not drawn)	> 100	> 100	> 100	> 100	> 100	> 100	> 100		> 100	> 100					
Cc1cc2c([nH]c3ccccc32)c(O)c1-c1c(C)cc2c([nH]c3ccccc32)c1O	36.5	28.8	18.5	30.1		25.7		55		29.4	15.9	32.9	3.85	16.5	13
NNC(=O)C1(NC(=O)c2ccccc2)C(c2ccccc2)C(c2ccccc2)=NN1c1ccccc1 (stereo not drawn)	> 100	> 100	> 100	> 100	> 100	> 100	> 100		> 100	> 100					
COc1cccc(C=O)c1[O-].[O]=[U](=[O])([OH2+])[OH2+]	> 100	> 100	> 100	> 100	63.6	> 100	> 100		> 100	> 100					
N#Cc1cc2c(n(C3OC(CO)C(O)C(O)C3O)c1=S)CCCCCC2 (stereo not drawn)	> 100	> 100	> 100	> 100		> 100	> 100	> 100	> 100	> 100					
CCOP(=O)(OCC)/C(=C/c1cccs1)CC(C)=O	> 100	> 100		> 100	> 100	> 100	> 100		> 100	> 100					
COc1ccc(C(SC2C(O)C(CO)OC2n2ccc(=O)[nH]c2=O)(c2ccccc2)c2ccc(OC)cc2)cc1 (stereo not drawn)	31.9	64.9	> 100	29	84.7	33.4	34.9	68.4	36.7						
O=C1NC(=O)C(C(CC(=O)c2ccc(Cl)cc2)c2ccc(Cl)cc2)C(=O)N1 (stereo not drawn)	> 100	> 100	> 100	> 100		> 100		> 100	7.63	> 100					
Nc1ccc(S(=O)(=O)Nc2nc3ccccc3nc2N2CCCCCC2)cc1	> 100	50.9	42.5	30.1	> 100	40.8	33.4	52	85.9						
CN1CC2=C(NC(=S)NC2c2ccccc2)/C(=C/c2ccccc2)C1 (stereo not drawn)	> 100		> 100	74.1	61.8	> 100	> 100	> 10	> 100	> 100					
Cc1cc(C)c2c(c1)C(=O)/C(=C/c1ccccc1C(=O)O)C2	> 100	> 100	> 100	> 100		> 100		> 100	> 100	> 100					
COc1ccc(C(=O)CC(c2ccccc2)[C@H]2C(c3ccc(OC)cc3)=Nc3c(nc(SC)n(C)c3=O)NC2c2ccccc2)cc1 (stereo partly drawn)	> 100		> 100	> 100	> 100		> 100			> 100					
COc1ccc(-c2oc3cc(O)cc(O)c3c(=O)c2OC)cc1		> 100	69.2	43.5	> 100	56.6	> 100	38.4	> 100	66.8					
Cc1nc(N)c(N2CCN(CN)CC2)c(=O)[nH]1	> 100	> 100	> 100			> 100	> 100	> 100	> 100	> 100					
CN(C)/N=N/c1nc2c(c(=O)n(C)c(=O)n2C)n1CC(O)CO (stereo not drawn)	> 100	> 100	> 100	> 100	> 100	> 100	> 100	> 100	> 100						
CN1C(=O)C(O)C[C@@H]1c1ccccc1 (stereo partly drawn)	> 100	> 100	> 100	> 100	> 100	> 100	> 100	> 100	> 100						
Cc1ccc(S(=O)(=O)Nc2nnc(S(N)(=O)=O)s2)cc1	> 100	> 100	> 100	> 100	> 100	> 100	> 100		> 100	> 100					
